Source: US20220339135A1, “COMPOSITIONS AND METHODS FOR MODULATING AN INFLAMMATORY RESPONSE” (Enzychem Lifesciences Corporation, priority 2019, published 2022)

Key:
[1] = test system: gemcitabine-induced neutrophil extravasation; test: Gemcitabine-induced neutropenia mice model; assay type: in vivo
Experimental: Male BALB/c mice were randomly divided into 3 groups; normal control group (n=5), gemcitabine only group (n=5) and gemcitabine with PLAG group (n=5). The mice were intraperitoneally (i.p.) injected with 50 mg/kg gemcitabine to induce neutropenia. PLAG was diluted with phosphate-buffered saline (PBS) and then orally administrated at a dose of 50 or 250 mg/kg/day. The normal control group was administered PBS only during the experiment. The whole blood was collected from the orbital sinuses using capillary tubes (Kimble Chase Life Science and Research Products LLC, FL, USA) and collection tubes containing K3E-K3EDTA (Greiner Bio-One International, Germany). To obtain peritoneal cells, 5 ml of cold PBS was injected to the left side of the peritoneal wall using a 5 mL syringe, and the fluid was aspirated from the peritoneum. The collected cells were counted by complete blood count (CBC) analysis using Mindray BC-5300 auto-hematology analyzer (Shenzhen Mindray Biomedical Electronics, China). To establish a 4T1 tumor-bearing mice model, the murine 4T1 mammary carcinoma cells (1×10^5) were subcutaneously injected on the right side of the abdomen. On the 10th day after tumor injection, the mice were intraperitoneally (i.p.) injected with 50 mg/kg gemcitabine, and the next day the whole blood was collected from the orbital sinuses as mentioned above before sacrificing the animals to obtain different organs of the body for RT-PCR.
PLAG inhibits gemcitabine-induced neutrophil extravasation into the peritoneum by down-regulating the expression of adhesion molecules in normal BALB/c mice. Male BALB/c mice of 8-10 weeks of age were orally administrated with 50 or 250 mg/kg of PLAG and then were intraperitoneally injected with 50 mg/kg gemcitabine. After 24 h, blood samples were collected by retro-orbital bleeding, and the number of blood neutrophils was determined by CBC analysis. Each group contains five mice. The population of blood neutrophils was analyzed by flow cytometry. Red cell-lysed whole blood was stained with FITC-conjugated anti-Ly6G and PE-Cy7-conjugated anti-CD11b antibodies to determine the circulating neutrophil population. Ly6G+/CD11b+ cells were further stained with APC-conjugated anti-L-selectin and APC-conjugated anti-LFA-1 antibodies and were analyzed by flow cytometry to determine the expression of adhesion molecules.
The mice were intraperitoneally (i.p.) injected with 50 mg/kg gemcitabine to induce neutropenia. PLAG was diluted with phosphate-buffered saline (PBS) and then orally administrated at a dose of 50 or 250 mg/kg/day. The normal control group was administered PBS only during the experiment. At 15 h after gemcitabine treatment, the whole blood was collected from the orbital sinuses using capillary tubes (Kimble Chase Life Science and Research Products LLC, FL, USA) and collection tubes containing K3E-K3EDTA (Greiner Bio-One International, Kremsmünster, Austria). To obtain peritoneal cells, 5 ml of cold PBS was injected to the left side of the peritoneal wall using a 5 mL syringe, and the fluid was aspirated from the peritoneum. The collected cells were counted by complete blood count (CBC) analysis using Mindray BC-5300 auto-hematology analyzer (Shenzhen Mindray Biomedical Electronics, Guangdong Sheng, China).
To establish a 4T1 tumor-bearing mice model, the murine 4T1 mammary carcinoma cells (1×105) were subcutaneously injected on the right side of the abdomen. On the 10th day after tumor injection, the mice were intraperitoneally (i.p.) injected with 50 mg/kg gemcitabine, and the next day the whole blood was collected from the orbital sinuses as mentioned above before sacrificing the animals to obtain different organs of the body.

[2] = test system: intracellular calcium in dHL-60 cells; test: Fluo-4 calcium assay; assay type: cell-based, human
Experimental: Human leukemia line (HL-60) cells were differentiated (dHL-60) to neutrophil-like cells in the culture medium with the addition of 1.3% DMSO (Sigma) for 5 days in a humidified atmosphere at 37° C. without changing the medium. dHL-60 cells (2×10^5 cells/mL) were loaded with 5 μM fluo-4 AM for 45 minutes and washed three times with warmed modified (37° C.) HBSS buffer (137.93 mM NaCl, 5.33 mM KCl, 2 mM CaCl2), 1 mM MgSO4, 2.38 mM HEPES, 5.5 mM glucose, pH to 7.4). The cells were seeded on black-walled 96-well plates and then treated with vehicle (0.1% DMSO), ionomycin (5 μM; positive control) or PLAG (100 μg/mL) just before measurement. Baseline fluorescence was measured before treatment, and fluorescence was read every 20 s for 700 s using an excitation wavelength of 494 nm, an emission wavelength of 516 nm in a FlexStation 3 microplate reader (Molecular Devices). Fluorescence values were reported as F/Fo according to the calculation: [ΔF=(494 nm)f/(516 nm)f−(494 nm)0/(516 nm)0]. For studies in 0 mM external calcium, the cells were loaded as mentioned earlier. After being loaded, the cells were washed four times with calcium-free HBSS. The remainder of the study was carried out in calcium-free HBSS.
(§1) HL-60 cells were differentiated (dHL-60) to neutrophil-like cells in the culture medium with the addition of 1.3% DMSO (Sigma) for 5 days in a humidified atmosphere at 37° C. without changing the medium. dHL-60 cells (2×10^5 cells/mL) were loaded with 5 μM fluo-4 AM for 45 minutes and washed three times with warmed modified (37° C.) HBSS buffer (137.93 mM NaCl, 5.33 mM KCl, 2 mM CaCl2, 1 mM MgSO4, 2.38 mM HEPES, 5.5 mM glucose, pH to 7.4). […] Baseline fluorescence was measured before treatment, and fluorescence was read every 20 seconds for 700 seconds using an excitation wavelength of 494 nm, an emission wavelength of 516 nm in a FlexStation 3 microplate reader (Molecular Devices). Fluorescence values were reported as F/Fo according to the calculation: [ΔF=(494 nm)f/(516 nm)f−(494 nm)0/(516 nm)0]. […]
as §1, with “s” for “seconds”, “Devices).” for “Devices). Fluorescence values were reported as F/Fo according to the calculation: [ΔF=(494 nm)f/(516 nm)f−(494 nm)0/(516 nm)0].”

[3] = test system: ERK, p38 MAPK, JNK in THP-1 cells; test: Gemcitabine-induced phosphorylation of ERK, p38 MAPK, JNK, western blot; assay type: cell-based, human; details: inhibitor of NADPH oxidase
Experimental: Total cells were lysed on ice for 30 minutes in RIPA buffer composed of 50 mM Tris-HCl (pH 7.4), 150 mM NaCl, 2 mM EDTA, 1% NP-40, 0.5% sodium deoxycholate, 0.1% SDS, 1 mM phenylmethylsulfonyl fluoride (PMSF), 10 mM sodium fluoride, 2 mM sodium pyrophosphate, 10 mM β-glycerophosphate, 10 mM sodium orthovanadate. Membrane-and-cytoplasmic protein fractions of cultured cells were obtained with Mem-PER Plus Membrane Protein Extraction Kit (Thermo Scientific, MA, USA) according to the manufacturer's instructions. The lysates were centrifuged at 13,000 rpm for 20 minutes at 4° C. and protein concentrations were determined using the Bradford assay (Bio-Rad Laboratories). Denatured samples were mixed with a 5×SDS-PAGE loading buffer and heated to 100° C. for 15 min. The samples were separated on the 10% of SDS-PAGE gel and transferred to polyvinylidene difluoride (PVDF) membranes (Merck Millipore Corporation, MA, USA). Membranes were blocked with 5% non-fat milk in PBS (10 mM Tris-HCl, pH7.5, 150 mM NaCl) for 1 h and probed with primary antibodies against ERK1/2, phospho-ERK1/2, P38, phospho-P38, SAPK/JNK, phospho-SAPK/JNK, Na, K-ATPase, α-Tubulin, and β-actin from Cell Signaling Technology (MA, USA), Rac1 from Merck Millipore Corporation), p47phox and phospho-p47phox from Invitrogen, adenosine receptor A1 from Abcam, β arrestin-1 from Santa Cruz Technology for overnight at 4° C. The blots were washed and incubated with appropriate secondary antibodies and visualized using Pierce ECL Western Blotting Substrate (Thermo Scientific).

[4] = test system: LPS-induced acute lung injury; test: LPS-induced acute lung injury (ALI) in mice; assay type: in vivo; details: LPS-treated mice, co-treatment
[5] = test system: citrullinated histone H3 in dHL-60 cells; test: Histone H3 citrullination, western blot; assay type: cell-based, human; details: time-dependent
Experimental: dHL-60 cells were lysed on ice for 30 minutes in RIPA buffer composed of 50 mM Tris-HCl (pH 7.4), 150 mM NaCl, 2 mM EDTA, 1% NP-40, 0.5% sodium deoxycholate, 0.1% SDS, 1 mM phenylmethylsulfonyl fluoride (PMSF), 10 mM sodium fluoride, 2 mM sodium pyrophosphate, 10 mM β-glycerophosphate, 10 mM sodium orthovanadate. The lysates were centrifuged at 13,000 rpm for 20 minutes at 4° C. and protein concentrations were determined using the Bradford assay (Bio-Rad Laboratories). Denatured samples were mixed with a 5×SDS-PAGE loading buffer and heated to 100° C. for 15 min. The samples were separated on the 10% of SDS-PAGE gel and transferred to polyvinylidene difluoride (PVDF) membranes (Merck Millipore Corporation, MA, USA). Membranes were blocked with 5% non-fat milk in PBS (10 mM Tris-HCl, pH7.5, 150 mM NaCl) for 1 h and probed with primary antibodies against histone H3 (citrulline R2+R8+R17) from abcam (USA) and β-actin from cell signaling (USA) for overnight at 4° C. The blots were washed and incubated with appropriate secondary antibodies and visualized using Pierce™ ECL Western Blotting Substrate (Thermo Scientific).

[6] = normal BALB/c mice, 15 hours after gemcitabine 50 mg/kg i.p.

## Nc1ccn([C@@H]2O[C@H](CO)[C@@H](O)C2(F)F)c(=O)n1 [gemcitabine, reference compound]
[1]; 4T1 tumor-bearing mice, gemcitabine 50 mg/kg i.p.
  mRNA expression of MIP-2 in tissues: increases
[1]; 4T1 tumor-bearing mice, one day after gemcitabine 50 mg/kg i.p.
  migration of circulating neutrophils into the peritoneal cavity: induced the migration
[1]; [6]
  circulating neutrophils: significant reduction
  neutrophils in the peritoneal cavity: increase

## COc1ccc2c(c1)CC[C@@H]1[C@@H]2CC[C@]2(C)[C@@H](NCCCCCCN3C(=O)C=CC3=O)CC[C@@H]12 [U73122, reference compound]
[2]; PLC inhibitor, dose-dependent
  PLAG-induced intracellular calcium increase: inhibited

## c1ccc2c(c1)[I+]c1ccccc1-2 [DPI, diphenyleneiodonium, reference compound]
[3]
  gemcitabine-induced phosphorylation of ERK, p38 MAPK and JNK: dose-dependently decreased

## CCCCCCCCCCCCCCCC(=O)O [PA, palmitic acid, reference compound]
[4]
  number of neutrophils in BALF: no effect

## C[C@H](CCC(=O)O)C[C@H](C)C[C@H](C)C(=O)/C=C(\O)[C@H](C)C[C@H](C)C/C=C/[C@@H](C)[C@@H](O)[C@@H](C)[C@@H](O)C[C@@H]1CC[C@@](C)([C@H]2CC[C@@](C)([C@@H](C)O)O2)O1 [ionomycin, reference compound]
[2]; PLAG 100 μg/mL, ionomycin 5 μM
  cytosolic calcium of dHL-60 cells: increased
[5]
  histone H3 citrullination: induced

## CCCCCC=CCC=CCCCCCCCC(=O)OC(CO)CO [HLH, hydroxyl linoleic hydroxyl glycerol, reference compound]
[4]
  number of neutrophils in BALF: no effect

## CCCCC/C=C\C/C=C\CCCCCCCC(=O)O [LA, linoleic acid, reference compound]
[4]
  number of neutrophils in BALF: no effect
